From article PMC10746543, “Design principles for cyclin K molecular glue degraders” (Nature Chemical Biology, 2023)
“And” between values parts separate entries of the source, which are not always exact repeats. Identical values can stand only once. Like-named read-outs stand apart in the source and are kept apart here.

How the values were obtained:
HEK293T cells = experiment: Drug sensitivity assay (CellTiter-Glo viability) with or without MLN4924 pretreatment; assay type: cell-based, human; details: for EC50: Homo sapiens, HEK-293T; for Toxicity rescue: MLN4924-mediated cytotoxicity rescue, 10 µM used where n.d.
In short: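 Viability of HEK293T–Cas9 cells was compared after 3-day drug treatment with or without 100 nM MLN4924 pretreatment (2 h, versus DMSO). Values are CellTiter-Glo signals relative to DMSO controls.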

CDK12–cyclin K = CDK12–cyclin K (Homo sapiens, UniProt Q9NYV4); experiment: Lanthascreen kinase binding assay, CDK12; details: for IC50: Supplementary Table 2, read-out: Lanthascreen IC50 [nM] CDK12; for Lanthascreen raw signal, sheet CDK12: duplicates
Procedure: (§1) Lanthascreen experiments were performed using commercially available reagents (Thermo Fisher) and according to the manufacturer’s instructions.

CDK9–cyclin T = molecular target: T1, CDK9–cyclin T (Homo sapiens, UniProt P50750); experiment: Lanthascreen kinase binding assay, CDK9; details: for IC50: Supplementary Table 2, read-out: Lanthascreen IC50 [nM] CDK9; for Lanthascreen TR-FRET signal (raw ratio), sheet CDK9: duplicates
T1 construct: purchased Thermo Fisher
Procedure: as §1

[1] = tested on: cyclin K–eGFP degradation reporter; experiment: Cyclin K reporter stability analysis (dual-color cyclin K–eGFP reporter); assay type: cell-based, human; details: source data sheet correlations; read-out: DC50
In short: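 Cells (HEK293T–Cas9, reporter-expressing) at 1 × 10^6 ml^−1; 5 h compound or DMSO; flow cytometry; gMFI eGFP ÷ mCherry on round mCherry-positive events; normalized to 3 DMSO controls.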

CDK12–cyclin K and DDB1 = molecular target: T2, CDK12–cyclin K and DDB1 (Homo sapiens, UniProt Q16531+Q9NYV4, K965R); experiment: TR-FRET ternary complex formation assay (compound titration); assay type: binding
T2 construct: His6–CDK12 (a.a. 713–1,052); full-length or beta-propeller B domain deletion (ΔBPB: a.a. 396–705 deleted) constructs of His6–DDB1ΔBPB, StrepII–Avi–DDB1, or His6–Spy–DDB1; made in house; host or cells: Trichoplusia ni High Five insect cells (baculovirus)
In short: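 Delayed (70 μs) time-resolved read; FRET computed as 520 nm over 490 nm emission.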

CDK2–cyclin A = molecular target: T3, CDK2–cyclin A (Homo sapiens, UniProt P24941); experiment: Lanthascreen kinase binding assay, CDK2; details: for Lanthascreen signal, sheet CDK2: raw replicates
T3 construct: purchased Thermo Fisher
Procedure: as §1

[2] = Supplementary Table 2, HEK293T viability, 72 h, compound alone, read-out: Cellular assays EC50
[3] = source data sheet correlations, read-out: TR-FRET EC50
[4] = Lanthascreen, average, Extended Data Fig. 8, read-out: CDK2 IC50
[5] = Supplementary Table 2, read-out: Lanthascreen IC50 [nM] CDK2

T1 sequence (P50750 whole entry): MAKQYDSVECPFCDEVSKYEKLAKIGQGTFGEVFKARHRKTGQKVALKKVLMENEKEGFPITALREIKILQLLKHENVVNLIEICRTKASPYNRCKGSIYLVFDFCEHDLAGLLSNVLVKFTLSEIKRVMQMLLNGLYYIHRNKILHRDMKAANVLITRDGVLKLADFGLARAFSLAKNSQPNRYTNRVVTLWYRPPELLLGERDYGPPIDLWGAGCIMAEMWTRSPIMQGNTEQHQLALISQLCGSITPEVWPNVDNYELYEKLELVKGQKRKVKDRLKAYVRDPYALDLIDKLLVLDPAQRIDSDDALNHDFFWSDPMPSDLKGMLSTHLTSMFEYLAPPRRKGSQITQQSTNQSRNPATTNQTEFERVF
T1 sequence (O60563 whole entry partner): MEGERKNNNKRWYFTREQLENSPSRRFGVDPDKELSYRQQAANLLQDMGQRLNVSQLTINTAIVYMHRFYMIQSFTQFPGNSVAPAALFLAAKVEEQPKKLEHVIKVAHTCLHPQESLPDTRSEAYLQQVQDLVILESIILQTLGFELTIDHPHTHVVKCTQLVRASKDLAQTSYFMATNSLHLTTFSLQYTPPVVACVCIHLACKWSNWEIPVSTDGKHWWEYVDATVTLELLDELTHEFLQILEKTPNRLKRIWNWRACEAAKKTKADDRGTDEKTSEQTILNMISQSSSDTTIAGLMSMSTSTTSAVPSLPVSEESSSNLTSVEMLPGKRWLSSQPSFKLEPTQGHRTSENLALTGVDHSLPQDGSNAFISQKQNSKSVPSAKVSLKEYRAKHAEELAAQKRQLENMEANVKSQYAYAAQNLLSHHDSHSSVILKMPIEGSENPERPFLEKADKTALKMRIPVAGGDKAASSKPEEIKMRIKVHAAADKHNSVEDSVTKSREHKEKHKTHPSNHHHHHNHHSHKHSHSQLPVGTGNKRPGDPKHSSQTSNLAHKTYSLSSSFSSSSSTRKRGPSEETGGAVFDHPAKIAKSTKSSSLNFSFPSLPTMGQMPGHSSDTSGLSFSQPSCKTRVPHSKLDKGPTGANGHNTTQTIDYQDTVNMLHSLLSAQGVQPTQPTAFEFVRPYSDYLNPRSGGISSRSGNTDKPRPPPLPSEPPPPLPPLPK
T2 sequence (Q9NYV4 713-1052 K965R): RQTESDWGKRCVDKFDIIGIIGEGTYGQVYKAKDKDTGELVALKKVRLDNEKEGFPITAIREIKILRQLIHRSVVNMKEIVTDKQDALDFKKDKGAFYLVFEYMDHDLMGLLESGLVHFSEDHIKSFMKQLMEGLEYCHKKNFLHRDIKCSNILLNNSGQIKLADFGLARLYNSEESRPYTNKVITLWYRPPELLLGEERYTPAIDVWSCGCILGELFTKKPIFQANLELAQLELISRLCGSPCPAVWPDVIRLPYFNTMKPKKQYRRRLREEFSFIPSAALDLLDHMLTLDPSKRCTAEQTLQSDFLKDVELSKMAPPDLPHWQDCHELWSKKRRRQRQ
T2 sequence (O75909 1-267 partner): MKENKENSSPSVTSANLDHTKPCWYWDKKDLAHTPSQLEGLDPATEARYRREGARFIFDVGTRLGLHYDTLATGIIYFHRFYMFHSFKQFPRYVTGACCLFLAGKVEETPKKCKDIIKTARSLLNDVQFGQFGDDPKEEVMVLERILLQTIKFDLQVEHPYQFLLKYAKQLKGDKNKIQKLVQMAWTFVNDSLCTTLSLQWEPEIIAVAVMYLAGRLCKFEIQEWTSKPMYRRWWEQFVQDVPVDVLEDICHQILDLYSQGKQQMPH
T2 sequence (Q16531 whole entry): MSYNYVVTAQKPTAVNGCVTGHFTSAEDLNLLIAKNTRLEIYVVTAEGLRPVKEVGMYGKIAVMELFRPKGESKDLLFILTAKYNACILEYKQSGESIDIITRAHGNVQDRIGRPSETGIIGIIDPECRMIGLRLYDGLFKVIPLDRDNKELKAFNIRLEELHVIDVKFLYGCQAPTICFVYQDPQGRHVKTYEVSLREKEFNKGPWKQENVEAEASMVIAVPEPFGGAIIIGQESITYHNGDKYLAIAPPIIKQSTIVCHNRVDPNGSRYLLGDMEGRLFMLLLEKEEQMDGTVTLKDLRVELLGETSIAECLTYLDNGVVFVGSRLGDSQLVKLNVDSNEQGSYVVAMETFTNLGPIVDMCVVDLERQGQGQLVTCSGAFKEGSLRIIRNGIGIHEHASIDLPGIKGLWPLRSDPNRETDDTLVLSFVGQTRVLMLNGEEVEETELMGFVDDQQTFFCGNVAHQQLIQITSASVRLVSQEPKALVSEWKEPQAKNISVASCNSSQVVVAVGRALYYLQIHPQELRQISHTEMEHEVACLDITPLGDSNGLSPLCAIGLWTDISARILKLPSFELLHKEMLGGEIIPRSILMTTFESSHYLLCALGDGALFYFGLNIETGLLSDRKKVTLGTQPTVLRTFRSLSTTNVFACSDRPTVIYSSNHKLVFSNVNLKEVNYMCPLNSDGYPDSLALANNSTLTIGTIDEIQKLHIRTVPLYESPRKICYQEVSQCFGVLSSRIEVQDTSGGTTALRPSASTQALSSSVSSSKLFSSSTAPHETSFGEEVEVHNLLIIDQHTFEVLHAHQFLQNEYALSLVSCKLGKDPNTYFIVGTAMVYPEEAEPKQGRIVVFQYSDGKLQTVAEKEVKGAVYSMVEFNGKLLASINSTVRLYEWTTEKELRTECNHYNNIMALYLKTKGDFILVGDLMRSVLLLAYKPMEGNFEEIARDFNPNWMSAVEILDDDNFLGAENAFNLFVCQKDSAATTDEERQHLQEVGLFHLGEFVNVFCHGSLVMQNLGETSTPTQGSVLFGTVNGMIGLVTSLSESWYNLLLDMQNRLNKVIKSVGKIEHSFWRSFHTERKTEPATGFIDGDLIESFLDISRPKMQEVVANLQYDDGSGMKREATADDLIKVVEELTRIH
Chain of CDK12–cyclin K (Q9NYV4 713-1052): as the sequence (Q9NYV4 713-1052 K965R) above, with R253K counted along it
Chain of CDK12–cyclin K (O75909 1-267 partner limits assumed): as the sequence (O75909 1-267 partner) above

For `Cn1cc(-n2cnc3c(NCc4ccc(-c5ccccn5)cc4)nc(N4CCOCC4)nc32)cn1` [DS21], the EC50 (HEK293T cells; Supplementary Fig. 5, HEK293T, CellTiter Glo, 72h, pre-treatment with 100 nM MLN4924, read-out: Viability EC50, with MLN4924) was 4860 nM, the EC50 (HEK293T cells; [2]) was 4940 nM and the Toxicity rescue (HEK293T cells; Supplementary Table 2) was 102%. For the same compound, the IC50 (CDK12–cyclin K) was 2860 nM, the “Lanthascreen raw signal, sheet CDK12” value (CDK12–cyclin K; compound 0.038147 nM, series r37) was 0.01384 and 0.01435 and the “Lanthascreen raw signal, sheet CDK12” value (CDK12–cyclin K; compound 0.152588 nM, series r37) was 0.01397 and 0.0142. For the same compound, the “Lanthascreen raw signal, sheet CDK12” value (CDK12–cyclin K; compound 0.610352 nM, series r37) was 0.015 and 0.01469, the “Lanthascreen raw signal, sheet CDK12” value (CDK12–cyclin K; compound 9.76563 nM, series r37) was 0.01433 and 0.01471 and the “Lanthascreen raw signal, sheet CDK12” value (CDK12–cyclin K; compound 39.0625 nM, series r37) was 0.01481 and 0.01445. The “Lanthascreen raw signal, sheet CDK12” value (CDK12–cyclin K; compound 156.25 nM, series r37) was 0.01408 and 0.01362, the “Lanthascreen raw signal, sheet CDK12” value (CDK12–cyclin K; compound 625 nM, series r37) was 0.01314 and 0.0125 and the “Lanthascreen raw signal, sheet CDK12” value (CDK12–cyclin K; compound 2500 nM, series r37) was 0.01076 and 0.01056. The “Lanthascreen raw signal, sheet CDK12” value (CDK12–cyclin K; compound 10000 nM, series r37) was 0.008221 and 0.008078, the IC50 (CDK9–cyclin T) was 953 nM and the “Lanthascreen TR-FRET signal (raw ratio), sheet CDK9” value (CDK9–cyclin T; compound 0.038147 nM, third titration set (r25)) was 0.01926 and 0.02033. The “Lanthascreen TR-FRET signal (raw ratio), sheet CDK9” value (CDK9–cyclin T; compound 0.152588 nM, third titration set (r25)) was 0.01912 and 0.02064, the “Lanthascreen TR-FRET signal (raw ratio), sheet CDK9” value (CDK9–cyclin T; compound 0.610352 nM, third titration set (r25)) was 0.01926 and 0.02032 and the “Lanthascreen TR-FRET signal (raw ratio), sheet CDK9” value (CDK9–cyclin T; compound 9.76563 nM, third titration set (r25)) was 0.01956 and 0.02095. The “Lanthascreen TR-FRET signal (raw ratio), sheet CDK9” value (CDK9–cyclin T; compound 39.0625 nM, third titration set (r25)) was 0.01859 and 0.0203, the “Lanthascreen TR-FRET signal (raw ratio), sheet CDK9” value (CDK9–cyclin T; compound 156.25 nM, third titration set (r25)) was 0.01696 and 0.01861 and the “Lanthascreen TR-FRET signal (raw ratio), sheet CDK9” value (CDK9–cyclin T; compound 625 nM, third titration set (r25)) was 0.01333 and 0.0154. For the same compound, the “Lanthascreen TR-FRET signal (raw ratio), sheet CDK9” value (CDK9–cyclin T; compound 2500 nM, third titration set (r25)) was 0.009112 and 0.01043, the “Lanthascreen TR-FRET signal (raw ratio), sheet CDK9” value (CDK9–cyclin T; compound 10000 nM, third titration set (r25)) was 0.007018 and 0.007122 and the DC50 [1] was 3120 nM. For the same compound, the “TR-FRET signal at compound concentration 4.68 nM” value (CDK12–cyclin K and DDB1; compound concentration 4.68 nM, raw replicate titration data) was 0.1432 and 0.1661, the “TR-FRET signal at compound concentration 21.6 nM” value (CDK12–cyclin K and DDB1; compound concentration 21.6 nM, raw replicate titration data) was 0.2041 and 0.2174 and the “TR-FRET signal at compound concentration 36 nM” value (CDK12–cyclin K and DDB1; compound concentration 36 nM, raw replicate titration data) was 0.3026 and 0.3362. For the same compound, the “TR-FRET signal at compound concentration 79.2001 nM” value (CDK12–cyclin K and DDB1; compound concentration 79.2001 nM, raw replicate titration data) was 0.4985 and 0.5183, the “TR-FRET signal at compound concentration 158.4 nM” value (CDK12–cyclin K and DDB1; compound concentration 158.4 nM, raw replicate titration data) was 0.7975 and 0.8115 and the “TR-FRET signal at compound concentration 309.6 nM” value (CDK12–cyclin K and DDB1; compound concentration 309.6 nM, raw replicate titration data) was 1.104 and 1.124. For the same compound, the “TR-FRET signal at compound concentration 626.401 nM” value (CDK12–cyclin K and DDB1; compound concentration 626.401 nM, raw replicate titration data) was 1.537 and 1.587, the “TR-FRET signal at compound concentration 1252.8 nM” value (CDK12–cyclin K and DDB1; compound concentration 1252.8 nM, raw replicate titration data) was 1.789 and 1.917 and the “TR-FRET signal at compound concentration 2448 nM” value (CDK12–cyclin K and DDB1; compound concentration 2448 nM, raw replicate titration data) was 1.994 and 2.074. For the same compound, the “TR-FRET signal at compound concentration 9936.01 nM” value (CDK12–cyclin K and DDB1; compound concentration 9936.01 nM, raw replicate titration data) was 2.1 and 2.149, the “TR-FRET signal at compound concentration 20016 nM” value (CDK12–cyclin K and DDB1; compound concentration 20016 nM, raw replicate titration data) was 2.044 and 2.1355 and the “DDB1–CDK12 complex formation, result in words” value (CDK12–cyclin K and DDB1; in vitro TR-FRET) was “poorer glues”. The EC50 (CDK12–cyclin K and DDB1; sheet MOESM7, read-out: log TR-FRET EC50 (converted)) was 299 nM, the EC50 (CDK12–cyclin K and DDB1; [3]) was 299 nM and the “Lanthascreen signal, sheet CDK2” value (CDK2–cyclin A; Compound 0.038147 nM, experiment r36-r46) was 0.01393 and 0.01328. The “Lanthascreen signal, sheet CDK2” value (CDK2–cyclin A; Compound 0.152588 nM, experiment r36-r46) was 0.01386 and 0.01382, the “Lanthascreen signal, sheet CDK2” value (CDK2–cyclin A; Compound 0.610352 nM, experiment r36-r46) was 0.01425 and 0.01382 and the “Lanthascreen signal, sheet CDK2” value (CDK2–cyclin A; Compound 9.76563 nM, experiment r36-r46) was 0.01432 and 0.01375. For the same compound, the “Lanthascreen signal, sheet CDK2” value (CDK2–cyclin A; Compound 39.0625 nM, experiment r36-r46) was 0.01417 and 0.01371, the “Lanthascreen signal, sheet CDK2” value (CDK2–cyclin A; Compound 156.25 nM, experiment r36-r46) was 0.01414 and 0.0141 and the “Lanthascreen signal, sheet CDK2” value (CDK2–cyclin A; Compound 625 nM, experiment r36-r46) was 0.01356 and 0.01358. For the same compound, the “Lanthascreen signal, sheet CDK2” value (CDK2–cyclin A; Compound 2500 nM, experiment r36-r46) was 0.0127 and 0.009084, the “Lanthascreen signal, sheet CDK2” value (CDK2–cyclin A; Compound 10000 nM, experiment r36-r46) was 0.01132 and 0.011 and the IC50 (CDK2–cyclin A; [4]) was > 10000 nM. The IC50 (CDK2–cyclin A; [5]) was > 10000 nM.
Work on `COc1cc2nc(CN3CCc4sccc4C3)[nH]c(=O)c2cc1OC` [Z12] yielded an EC50 (HEK293T cells; [2]) of 1370 nM, a Toxicity rescue (HEK293T cells; Supplementary Table 2) of 49% and an IC50 (CDK12–cyclin K) of 1940 nM. The “Lanthascreen raw signal, sheet CDK12” value (CDK12–cyclin K; compound 1.02544 nM, series r1) was 0.008768 and 0.008409, the “Lanthascreen raw signal, sheet CDK12” value (CDK12–cyclin K; compound 3.15521 nM, series r1) was 0.009734 and 0.0102 and the “Lanthascreen raw signal, sheet CDK12” value (CDK12–cyclin K; compound 9.46563 nM, series r1) was 0.009031 and 0.008491. The “Lanthascreen raw signal, sheet CDK12” value (CDK12–cyclin K; compound 31.5521 nM, series r1) was 0.008872 and 0.01072, the “Lanthascreen raw signal, sheet CDK12” value (CDK12–cyclin K; compound 99.3891 nM, series r1) was 0.01101 and 0.009378 and the “Lanthascreen raw signal, sheet CDK12” value (CDK12–cyclin K; compound 315.521 nM, series r1) was 0.008266 and 0.00879. For the same compound, the “Lanthascreen raw signal, sheet CDK12” value (CDK12–cyclin K; compound 3155.21 nM, series r1) was 0.006586 and 0.00831, the “Lanthascreen raw signal, sheet CDK12” value (CDK12–cyclin K; compound 10002 nM, series r1) was 0.00787 and 0.005759 and the IC50 (CDK9–cyclin T) was 2230 nM. For the same compound, the “Lanthascreen TR-FRET signal (raw ratio), sheet CDK9” value (CDK9–cyclin T; compound 1.02544 nM, first titration set (r1)) was 0.01363 and 0.01444, the “Lanthascreen TR-FRET signal (raw ratio), sheet CDK9” value (CDK9–cyclin T; compound 3.15521 nM, first titration set (r1)) was 0.01374 and 0.01202 and the “Lanthascreen TR-FRET signal (raw ratio), sheet CDK9” value (CDK9–cyclin T; compound 9.46563 nM, first titration set (r1)) was 0.01193 and 0.01374. For the same compound, the “Lanthascreen TR-FRET signal (raw ratio), sheet CDK9” value (CDK9–cyclin T; compound 31.5521 nM, first titration set (r1)) was 0.01293 and 0.01321, the “Lanthascreen TR-FRET signal (raw ratio), sheet CDK9” value (CDK9–cyclin T; compound 99.3891 nM, first titration set (r1)) was 0.01614 and 0.01565 and the “Lanthascreen TR-FRET signal (raw ratio), sheet CDK9” value (CDK9–cyclin T; compound 315.521 nM, first titration set (r1)) was 0.01216 and 0.01193. The “Lanthascreen TR-FRET signal (raw ratio), sheet CDK9” value (CDK9–cyclin T; compound 3155.21 nM, first titration set (r1)) was 0.009114 and 0.00834, the “Lanthascreen TR-FRET signal (raw ratio), sheet CDK9” value (CDK9–cyclin T; compound 10002 nM, first titration set (r1)) was 0.005656 and 0.005947 and the DC50 [1] was 3490 nM. The EC50 (CDK12–cyclin K and DDB1; [3]) was 833 nM, the “Lanthascreen signal, sheet CDK2” value (CDK2–cyclin A; Compound 1.02544 nM, experiment r1-r11) was 0.01113 and 0.009882 and the “Lanthascreen signal, sheet CDK2” value (CDK2–cyclin A; Compound 3.15521 nM, experiment r1-r11) was 0.009971 and 0.01033. For the same compound, the “Lanthascreen signal, sheet CDK2” value (CDK2–cyclin A; Compound 9.46563 nM, experiment r1-r11) was 0.01229 and 0.009342, the “Lanthascreen signal, sheet CDK2” value (CDK2–cyclin A; Compound 31.5521 nM, experiment r1-r11) was 0.009577 and 0.009489 and the “Lanthascreen signal, sheet CDK2” value (CDK2–cyclin A; Compound 99.3891 nM, experiment r1-r11) was 0.0109 and 0.009513. For the same compound, the “Lanthascreen signal, sheet CDK2” value (CDK2–cyclin A; Compound 315.521 nM, experiment r1-r11) was 0.01017 and 0.01118, the “Lanthascreen signal, sheet CDK2” value (CDK2–cyclin A; Compound 3155.21 nM, experiment r1-r11) was 0.009276 and 0.007116 and the “Lanthascreen signal, sheet CDK2” value (CDK2–cyclin A; Compound 10002 nM, experiment r1-r11) was 0.008712 and 0.007113. For the same compound, the IC50 (CDK2–cyclin A; [4]) was > 10000 nM and the IC50 (CDK2–cyclin A; [5]) was > 10000 nM.
